Laboratory results: patent US12662490B2, “Heterocyclic compounds” (Hoffmann-La Roche Inc., priority 2019, dated 2026)

Each molecule was assayed against T1, MAGL (Homo sapiens, UniProt Q99685) (assay: 2-AG assay (MAGL inhibitory activity; hydrolysis of 2-arachidonoylglycerol to arachidonic acid followed by mass spectrometry)). Details: 15 min preincubation at RT, 8 μM 2-arachidonoylglycerol, 30 min at RT, RapidFire MS readout.
T1 sequence (Q99685 1-303): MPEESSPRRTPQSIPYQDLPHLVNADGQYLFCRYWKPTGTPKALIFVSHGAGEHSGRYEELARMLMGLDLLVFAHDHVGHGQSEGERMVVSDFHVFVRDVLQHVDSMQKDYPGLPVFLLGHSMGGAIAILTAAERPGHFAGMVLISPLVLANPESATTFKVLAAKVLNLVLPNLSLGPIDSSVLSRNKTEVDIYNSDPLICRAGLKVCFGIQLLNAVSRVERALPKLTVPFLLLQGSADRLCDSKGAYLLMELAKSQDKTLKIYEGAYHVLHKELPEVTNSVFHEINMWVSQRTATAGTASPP
Type: biochemical
How it was run: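 Compounds (final 12.5 μM to […], 3-fold steps) preincubated 15 min at RT with MAGL ([…]) in 50 mM TRIS, 1 mM EDTA, Tween buffer. Reaction started with 8 μM 2-arachidonoylglycerol, run 30 min at RT, quenched with ACN containing d8-arachidonic acid. Arachidonic acid quantified by RapidFire SPE-triple quadrupole MS (negative ESI), activity from arachidonic acid/d8 ratio.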

In order of falling IC50:
1. COc1ccc(-c2nc([C@]3(O)CN4CCN(C(=O)c5cccc(OC)c5Cl)C[C@H]4CO3)cs2)cn1 [Example 160, [(3S,9aS)-3-hydroxy-3-[2-(6-methoxy-3-pyridyl)thiazol-4-yl]-1,4,6,7,9,9a-hexahydropyrazino[2,1-c][1,4]oxazin-8-yl]-(2-chloro-3-methoxy-phenyl)methanone]  1.6 µM
2. COc1ccc(F)c(C(=O)N2CCN3C[C@H](c4ccc(F)c(Cl)c4)OC[C@@H]3C2)c1Cl [Example 159, [(3S,9aS)-3-(3-chloro-4-fluoro-phenyl)-3,4,6,7,9,9a-hexahydro-1H-pyrazino[2,1-c][1,4]oxazin-8-yl]-(2-chloro-6-fluoro-3-methoxy-phenyl)methanone]  1.48 µM
3. O=C(c1cccc(-c2c[nH]ncc2=O)c1Cl)N1CCN2C[C@@H](c3ccc(F)c(Cl)c3)OC[C@@H]2C1 [Example 158, 5-[3-[(3R,9aS)-3-(3-chloro-4-fluoro-phenyl)-3,4,6,7,9,9a-hexahydro-1H-pyrazino[2,1-c][1,4]oxazine-8-carbonyl]-2-chloro-phenyl]-1H-pyridazin-4-one]  1.02 µM
4. COc1cccc(C(=O)N2CCN3C[C@@](O)(c4cc(Br)no4)OC[C@@H]3C2)c1Cl [Example 157, [(3S,9aS)-3-(3-bromoisoxazol-5-yl)-3-hydroxy-1,4,6,7,9,9a-hexahydropyrazino[2,1-c][1,4]oxazin-8-yl]-(2-chloro-3-methoxy-phenyl)methanone]  0.849 µM
5. COc1cccc(C(=O)N2CCN3CC(c4ccc(F)c(-c5ccn(C)c5)c4)OC[C@@H]3C2)c1Cl (stereo partly drawn) [Example 156, [(9aS)-3-[4-fluoro-3-(1-methylpyrrol-3-yl)phenyl]-3,4,6,7,9,9a-hexahydro-1H-pyrazino[2,1-c][1,4]oxazin-8-yl]-(2-chloro-3-methoxy-phenyl)methanone]  0.815 µM
6. COc1cccc(C(=O)N2CCN3C[C@@H](c4ccc(C(F)(F)F)[nH]c4=O)OC[C@@H]3C2)c1Cl [Example 155, 3-[(3R,9aS)-8-(2-chloro-3-methoxy-benzoyl)-3,4,6,7,9,9a-hexahydro-1H-pyrazino[2,1-c][1,4]oxazin-3-yl]-6-(trifluoromethyl)-1H-pyridin-2-one]  0.78 µM
